This is an account of results in patent US7569570B2, “Thienopyrimidines, process for preparing the same and use thereof” (Takeda Pharmaceutical Company Limited, priority 2002, dated 2009).

One may read the melting point as the temperature of the solid-liquid transition. `CCNC(=O)Nc1ccc(-c2sc3c(c2CN(C)CCNS(C)(=O)=O)c(=O)n(-c2ccccc2)c(=O)n3Cc2c(F)cccc2F)cc1` [Example 22, N-{2-[{[1-(2,6-difluorobenzyl)-6-(4-{[(ethylamino)carbonyl]amino}phenyl)-2,4-dioxo-3-phenyl-1,2,3,4-tetrahydrothieno[2,3-d]pyrimidin-5-yl]methyl}(methyl)amino]ethyl}methanesulfonamide]: the melting point is 186 to 188 °C.
For `CCNC(=O)Nc1ccc(-c2sc3c(c2CN(C)CCN(C)S(C)(=O)=O)c(=O)n(-c2ccccc2)c(=O)n3Cc2c(F)cccc2F)cc1` [Example 23, N-{2-[{[1-(2,6-difluorobenzyl)-6-(4-{[(ethylamino)carbonyl]amino)phenyl)-2,4-dioxo-3-phenyl-1,2,3,4-tetrahydrothieno[2,3-d]pyrimidin-5-yl]methyl}(methyl)amino]ethyl}-N-methylmethanesulfonamide] the value was 216 to 218 °C.
For `CCNC(=O)Nc1ccc(-c2sc3c(c2CN(C)CCN2CCOC2=O)c(=O)n(-c2ccccc2)c(=O)n3Cc2c(F)cccc2F)cc1` [Example 24] the value was 153 to 155 °C; for `CCNC(=O)Nc1ccc(-c2sc3c(c2CN(C)CCN(C)Cc2ccccc2)c(=O)n(-c2ccccc2)c(=O)n3Cc2c(F)cccc2F)cc1` [Example 25, N-{4-[5-{[{2-[benzyl(methyl)amino]ethyl}(methyl)amino]methyl}-1-(2,6-difluorobenzyl)-2,4-dioxo-3-phenyl-1,2,3,4-tetrahydrothieno[2,3-d]pyrimidin-6-yl]phenyl}-N′-ethylurea], 151 to 153 °C.
The same measure for `CCNC(=O)Nc1ccc(-c2sc3c(c2CN(C)CCNC)c(=O)n(-c2ccccc2)c(=O)n3Cc2c(F)cccc2F)cc1` [Example 26, N-{4-[1-(2,6-difluorobenzyl)-5-({methyl[2-(methylamino)ethyl]amino}methyl)-2,4-dioxo-3-phenyl-1,2,3,4-tetrahydrothieno[2,3-d]pyrimidin-6-yl)phenyl}-N′-ethylurea]: 192 to 193 °C; for `CCNC(=O)Nc1ccc(-c2sc3c(c2CN(C)CCN(C)C(C)=O)c(=O)n(-c2ccccc2)c(=O)n3Cc2c(F)cccc2F)cc1` [Example 27, N-{2-[{[1-(2,6-difluorobenzyl)-6-(4-{[(ethylamino)carbonyl]amino}phenyl)-2,4-dioxo-3-phenyl-1,2,3,4-tetrahydrothieno[2,3-d]pyrimidin-5-yl]methyl}(methyl)amino]ethyl}-N-methylacetamide]: 180 to 181 °C.
Regarding `CCNC(=O)Nc1ccc(-c2sc3c(c2CNC)c(=O)n(-c2ccc(OCCOC)cc2)c(=O)n3Cc2c(F)cccc2F)cc1` [Example 28, N-(4-{1-(2,6-difluorobenzyl)-3-[4-(2-methoxyethoxy)phenyl]-5-[(methylamino)methyl]-2,4-dioxo-1,2,3,4-tetrahydrothieno[2,3-d]pyrimidin-6-yl}phenyl)-N′-ethylurea], the melting point lay within 203 to 205 °C.
Consider `CCNC(=O)Nc1ccc(-c2sc3c(c2CN(C)CCC(=O)NC)c(=O)n(-c2ccc(F)cc2)c(=O)n3Cc2c(F)cccc2F)cc1` [Example 30], for which the melting point fell in the range of 237 to 239 °C.
The same measure for `CCNC(=O)Nc1ccc(-c2sc3c(c2CN(C)CCC(=O)NC)c(=O)n(-c2ccc(OCCOC)cc2)c(=O)n3Cc2c(F)cccc2F)cc1` [Example 31]: 163 to 165 °C; for `CCNC(=O)Nc1ccc(-c2sc3c(c2CN(C)CCC(=O)N(C)C)c(=O)n(-c2ccc(F)cc2)c(=O)n3Cc2c(F)cccc2F)cc1` [Example 32]: 210 to 212 °C.
For `CCNC(=O)Nc1ccc(-c2sc3c(c2CN(C)CCN2CCCC2=O)c(=O)n(-c2ccc(F)cc2)c(=O)n3Cc2c(F)cccc2F)cc1` [Example 33] the value was 204 to 206 °C; for `CCNC(=O)Nc1ccc(-c2sc3c(c2CN(C)CCN2CCCC2=O)c(=O)n(-c2ccc(OCCOC)cc2)c(=O)n3Cc2c(F)cccc2F)cc1` [Example 34], 175 to 177 °C; for `CCNC(=O)Nc1ccc(-c2sc3c(c2CN(C)CC2CCN(C)C2=O)c(=O)n(-c2ccc(F)cc2)c(=O)n3Cc2c(F)cccc2F)cc1` (centres unmarked) [Example 36, N-(4-[1-(2,6-difluorobenzyl)-3-(4-fluorophenyl)-5-({methyl[(1-methyl-2-oxo-3-pyrrolidinyl)methyl]amino}methyl)-2,4-dioxo-1,2,3,4-tetrahydrothieno[2,3-d]pyrimidin-6-yl]phenyl}-N′-ethylurea], 233 to 234 °C.
The same measure for `CCNC(=O)Nc1ccc(-c2sc3c(c2CN(C)CCN(C)S(C)(=O)=O)c(=O)n(-c2ccc(F)cc2)c(=O)n3Cc2c(F)cccc2F)cc1` [Example 37, N-{2-[{[1-(2,6-difluorobenzyl)-6-(4-{[(ethylamino)carbonyl]amino}phenyl)-3-(4-fluorophenyl)-2,4-dioxo-1,2,3,4-tetrahydrothieno[2,3-d]pyrimidin-5-yl]methyl}(methyl)amino]ethyl}-N-methylsulfonamide]: 228 to 230 °C.
`CCNC(=O)Nc1ccc(-c2sc3c(c2CN(C)CCN(C)S(C)(=O)=O)c(=O)n(-c2ccc(OCCOC)cc2)c(=O)n3Cc2c(F)cccc2F)cc1` [Example 38, N-{2-[({1-2,6-(difluorobenzyl)-6-(4-{[(ethylamino)carbonyl]amino}phenyl)-3-[4-(2-methoxyethoxy)phenyl]-2,4-dioxo-1,2,3,4-tetrahydrothieno[2,3-d]pyrimidin-5-yl)methyl)(methyl)amino)ethyl)-N-methylsulfonamide] registered a melting point of 197 to 199 °C.
The same measure for `CCNC(=O)Nc1ccc(-c2sc3c(c2CN(C)C[C@@H]2CCCN2S(C)(=O)=O)c(=O)n(-c2ccccc2)c(=O)n3Cc2c(F)cccc2F)cc1` [Example 84]: 189 to 191 °C.
For `CCNC(=O)Nc1ccc(-c2sc3c(c2CN(C)C[C@H]2CCCN2S(C)(=O)=O)c(=O)n(-c2ccccc2)c(=O)n3Cc2c(F)cccc2F)cc1` [Example 85] the value was 189 to 190 °C.
The same measure for `CCNC(=O)Nc1ccc(-c2sc3c(c2CN(C)CCN2CCCS2(=O)=O)c(=O)n(-c2ccccc2)c(=O)n3Cc2c(F)cccc2F)cc1` [Example 86, N-[4-(1-(2,6-difluorobenzyl)-5-([[2-(1,1-dioxo-2-isothiazolidinyl)ethyl](methyl)amino]methyl}-2,4-dioxo-3-phenyl-1,2,3,4-tetrahydrothieno[2,3-d]pyrimidin-6-yl)phenyl]-N′-ethylurea]: 210 to 211 °C; for `CCNC(=O)Nc1ccc(-c2sc3c(c2CN(C)C2CCCCC2)c(=O)n(-c2ccccc2)c(=O)n3Cc2c(F)cccc2F)cc1` [Example 91, N-{4-[5-{[cyclohexyl(methyl)amino]methyl}-1-(2,6-difluorobenzyl)-2,4-dioxo-3-phenyl-1,2,3,4-tetrahydrothieno[2,3-d]pyrimidin-6-yl]phenyl}-N′-ethylurea]: 210 to 212 °C.
For `CCNC(=O)Nc1ccc(-c2sc3c(c2CN(C)C(C)C)c(=O)n(-c2ccccc2)c(=O)n3Cc2c(F)cccc2F)cc1` [Example 92, N-[4-(1-(2,6-difluorobenzyl)-5-{[isopropyl (methyl)amino]methyl}-2,4-dioxo-3-phenyl-1,2,3,4-tetrahydrothieno[2,3-d]pyrimidin-6-yl)phenyl]-N′-ethylurea], the melting point is 208 to 210 °C.
The same measure for `CCNC(=O)Nc1ccc(-c2sc3c(c2CN(C)C2CCCC2)c(=O)n(-c2ccccc2)c(=O)n3Cc2c(F)cccc2F)cc1` [Example 93, N-{4-[5-{[cyclopentyl(methyl)amino]methyl}-1-(2,6-difluorobenzyl)-2,4-dioxo-3-phenyl-1,2,3,4-tetrahydrothieno[2,3-d]pyrimidin-6-yl]phenyl}-N′-ethylurea]: 210 to 213 °C; for `CCNC(=O)Nc1ccc(-c2sc3c(c2CN(C)CCC(=O)N2CCCC2)c(=O)n(-c2ccccc2)c(=O)n3Cc2c(F)cccc2F)cc1` [Example 94, N-{4-[1-(2,6-difluorobenzyl)-5-({methyl[3-oxo-3-(1-pyrrolidinyl)propyl]amino}methyl)-2,4-dioxo-3-phenyl-1,2,3,4-tetrahydrothieno[2,3-d]pyrimidin-6-yl]phenyl}-N′-ethylurea]: 240 to 244 °C.
The same measure for `CCNC(=O)Nc1ccc(-c2sc3c(c2CN(C)CCC(=O)NCCOC)c(=O)n(-c2ccccc2)c(=O)n3Cc2c(F)cccc2F)cc1` [Example 95, 3-[{[1-(2,6-difluorobenzyl)-6-(4-{[(ethylamino)carbonyl]amino}phenyl)-2,4-dioxo-3-phenyl-1,2,3,4-tetrahydrothieno[2,3-d]pyrimidin-5-yl]methyl}(methyl)amino]-N-(2-methoxyethyl)propanamide]: 240 to 244 °C; for `CCNC(=O)Nc1ccc(-c2sc3c(c2CN(C)CCOC)c(=O)n(-c2ccc(N)cc2)c(=O)n3Cc2c(F)cccc2F)cc1` [Example 97, N-[4-(3-(4-aminophenyl)-1-(2,6-difluorobenzyl)-5-{[2-methoxyethyl(methyl)amino]methyl}-2,4-dioxo-1,2,3,4-tetrahydrothieno[2,3-d]pyrimidin-6-yl)phenyl]-N′-ethylurea]: 205 to 207 °C.
For `CCNC(=O)Nc1ccc(-c2sc3c(c2CN(C)CCOC)c(=O)n(-c2ccc(NC(C)=O)cc2)c(=O)n3Cc2c(F)cccc2F)cc1` [Example 98, N-[4-(3-(4-acetoaminophenyl)-1-(2,6-difluorobenzyl)-5-{[2-methoxyethyl(methyl)amino]methyl}-2,4-dioxo-1,2,3,4-tetrahydrothieno[2,3-d]pyrimidin-6-yl)phenyl]-N′-ethylurea] the value was 218 to 220 °C; for `CCNC(=O)Nc1ccc(-c2sc3c(c2CN(C)CCOC)c(=O)n(-c2ccc(NC(=O)NCC)cc2)c(=O)n3Cc2c(F)cccc2F)cc1` [Example 99, N-[4-(3-(4-{(ethylamino)carbonylamino}phenyl)-1-(2,6-difluorobenzyl)-5-{[2-methoxyethyl(methyl)amino]methyl}-2,4-dioxo-1,2,3,4-tetrahydrothieno[2,3-d]pyrimidin-6-yl)phenyl]-N′-ethylurea], 236 to 239 °C.
